The test system of data set [1] is Angiotensin II-induced pressor response. The experiment in a line: In vivo Angiotensin II antagonism in conscious normotensive rats. The settings on record: Rattus norvegicus, po; P.O.; conscious normotensive male SD rats; Angiotensin II 0.1 μg/kg; read-out: ID50 (dose of test compound necessary to produce 50% inhibition of Angiotensin II-induced pressor response). The protocol: The antagonistic activity of the compound (I) against the angiotensin II, which is prepared by the process according to a preferred embodiment of the invention, was evaluated with relation to rats.
In vivo Angiotensin II antagonism in conscious normotensive rats.
Male SD rats (Charles River Japan, 9 weeks, 300-350 g) were anesthetized with pentobarbital at 50 mg/kg i.p. Both the left femoral artery and the right femoral vein were cannulated. A heparin-filled catheter (50U/ml) was tunneled subcutaneously (s.c.) to the dorsal side of the neck and exteriorized.
Rats were permitted to recover overnight from anesthesia and allowed free access to water, but food was withheld.
The next day, the femoral artery catheter was connected to a pressure transducer (COBE 041-500-508, USA) coupled to a polygraph (GRASS Model 7, USA) to monitor arterial blood pressure. After an appropriate equilibration period, Angiotensin II (0.1 μg/kg) was injected in the femoral vein three times during the control period.
Test compounds were then administered orally (p.o.) at a constant volume of 2 ml/kg.
Angiotensin II challenges were repeated at set times thereafter.
ID50 values, the dose of test compound necessary to produce 50% inhibition of Angiotensin II-induced pressor response, were calculated from peak inhibition percentage with several doses of test compound.

The nature of data set [2]: Acute Toxicity Test (oral, mice). The class given is in vivo. To be noted: for LD50: mouse, in vivo, po. The protocol:
Respective 5 mice of ICR system, which was distributed from Korean Laboratory Animal Center, were bred in a polycarbonate breeding box at a breeding environment of 23±1° C. of temperature, 55±5% of humidity, 10-15 times/hr of evacuation, 12 hr cycle of fluorescent light luminance, and 150-300 Lux of illumination.
After observing the mice for one week of acclimation breeding period, only normal mice were selected for laboratory work. The mice were fed with sterilized feed for laboratory animals, which was made by Cheil Jedang Co.,Ltd, and supplied with purified water to drink.
During the acclimation period, mice, who were evaluated to be healthy, were weighed and divided into groups randomly. Individual identification of laboratory animals was performed by indumentum pigment display and tag display per breeding box.
Establishment of dose was carried out according to a result of preliminary test in such a manner that a maximum dose group for both male and female was set to 5000 mg/kg and azeotropy was set to 1.71. Medium-high, medium and medium-low dose groups were respectively set as follows and a control group was administrated with physiological saline for injection.
Before administration of testing substances, body weight of the laboratory animals was in the range of 24-28 g in case of male and in the range of 19-28 g in case of female, respectively. The laboratory animals were aged 6 weeks.
Preparation of the testing substances was dissolved in physiological saline before administration. Dose was calculated according to the body weight which was measured before administration and dispensed by oral administration to a mouse who was in abrosia for 18 hours before testing.
Observation of clinical symptom such as general change, toxic symptom and mortality was performed for all laboratory animals once an hour during 6 hours after administration on the very administration day, and once a day from the next day to 14th day of administration.
Administration group, who was administered with testing substances, and the control group were weighed on the administration day, first, third, seventh, tenth and fourteenth days from the administration at a predetermined time for all animals who were alive.
After finish of the test, all animals were slightly anesthetized with ether and bleeding-killed. Appearance and internal organs of the animals were examined with naked eye carefully. Animals, who died during the text, were examined in the same manner.

This is an account of results in US6294542A, “Pyrimidinone compounds, pharmaceutical compositions containing the compounds and the process for preparing the same” (Boryung Pharmaceutical Co. Ltd., priority 1998, dated 2001).

Consider `CCCCc1nc(C)c(CC(N)=S)c(=O)n1Cc1ccc(-c2ccccc2-c2nnn[nH]2)cc1` [Compound 1, 2-n-butyl-5-aminothiocarbonylmethyl-6-methyl-3-[[2'-(1H-tetrazol-5-yl)biphenyl-4-yl]methyl]-pyrimidine-4(3H)-one], for which the ED50 in data set [1] was over 3 mg/kg.

On to `CCCCc1nc(C)c(CC(=S)N(C)C)c(=O)n1Cc1ccc(-c2ccccc2-c2nnn[nH]2)cc1` [Compound 2, 2-n-butyl-5-dimethylaminothiocarbonylmethyl-6-methyl-3-[[2'-(1H-tetrazol-5-yl)biphenyl-4-yl]methyl]-pyrimidine-4(3H)-one], for which the “Mortality (death number/survival number)” value is on record as 0/5 in data set [2] (female, 1000 mg/kg oral, day 0); 0/5 in data set [2] (female, 1000 mg/kg oral, day 1); 0/5 in data set [2] (female, 1000 mg/kg oral, day 2); 0/5 in data set [2] (female, 1000 mg/kg oral, day 3); 0/5 in data set [2] (female, 1000 mg/kg oral, day 7); 0/5 in data set [2] (female, 1000 mg/kg oral, day 14). Also, the “Mortality (death number/survival number)” value in data set [2] (female, 1710 mg/kg oral, day 0) is reported as 0/5; in data set [2] (female, 1710 mg/kg oral, day 1), 0/5; in data set [2] (female, 1710 mg/kg oral, day 2) it was 0/5; in data set [2] (female, 1710 mg/kg oral, day 3), 0/5; in data set [2] (female, 1710 mg/kg oral, day 7), 0/5; in data set [2] (female, 1710 mg/kg oral, day 14), 0/5. In addition, the “Mortality (death number/survival number)” value in data set [2] (female, 2924 mg/kg oral, day 0) is listed as 0/5; in data set [2] (female, 2924 mg/kg oral, day 1) it was 0/5; in data set [2] (female, 2924 mg/kg oral, day 2) it was 0/5; in data set [2] (female, 2924 mg/kg oral, day 3), 0/5; in data set [2] (female, 2924 mg/kg oral, day 7), 0/5; in data set [2] (female, 2924 mg/kg oral, day 14) it was 0/5. The “Mortality (death number/survival number)” value in data set [2] (female, 5000 mg/kg oral, day 0) is given as 0/5; in data set [2] (female, 5000 mg/kg oral, day 1) it was 0/5; in data set [2] (female, 5000 mg/kg oral, day 2), 0/5; in data set [2] (female, 5000 mg/kg oral, day 3), 0/5; in data set [2] (female, 5000 mg/kg oral, day 7), 0/5; in data set [2] (female, 5000 mg/kg oral, day 14), 0/5. Also, the “Mortality (death number/survival number)” value in data set [2] (male, 1000 mg/kg oral, day 0) is listed as 0/5; in data set [2] (male, 1000 mg/kg oral, day 1), 0/5; in data set [2] (male, 1000 mg/kg oral, day 2), 0/5; in data set [2] (male, 1000 mg/kg oral, day 3), 0/5; in data set [2] (male, 1000 mg/kg oral, day 7), 0/5; in data set [2] (male, 1000 mg/kg oral, day 14), 0/5. Also, the “Mortality (death number/survival number)” value in data set [2] (male, 1710 mg/kg oral, day 0) was 0/5; in data set [2] (male, 1710 mg/kg oral, day 1) it was 0/5; in data set [2] (male, 1710 mg/kg oral, day 2), 0/5; in data set [2] (male, 1710 mg/kg oral, day 3), 0/5; in data set [2] (male, 1710 mg/kg oral, day 7), 0/5; in data set [2] (male, 1710 mg/kg oral, day 14) it was 0/5. Further, the “Mortality (death number/survival number)” value is listed as 0/5 in data set [2] (male, 2924 mg/kg oral, day 0); 0/5 in data set [2] (male, 2924 mg/kg oral, day 1); 0/5 in data set [2] (male, 2924 mg/kg oral, day 2); 0/5 in data set [2] (male, 2924 mg/kg oral, day 3); 0/5 in data set [2] (male, 2924 mg/kg oral, day 7); 0/5 in data set [2] (male, 2924 mg/kg oral, day 14). Besides, the “Mortality (death number/survival number)” value in data set [2] (male, 5000 mg/kg oral, day 0) is 0/5; in data set [2] (male, 5000 mg/kg oral, day 1), 0/5; in data set [2] (male, 5000 mg/kg oral, day 2) it was 0/5; in data set [2] (male, 5000 mg/kg oral, day 3), 0/5; in data set [2] (male, 5000 mg/kg oral, day 7) it was 0/5; in data set [2] (male, 5000 mg/kg oral, day 14) it was 0/5. The “Final mortality (death number/total number)” value in data set [2] (female, 5000 mg/kg oral) is listed as 0/5; in data set [2] (male, 5000 mg/kg oral) it was 0/5. Also, the LD50 in data set [2] (female mice) and in data set [2] (male mice) was over 5000 mg/kg each time. The ED50 in data set [1] stood at 1.1 mg/kg.

With `CCCCc1nc(C)c(CC(=S)N(CC)CC)c(=O)n1Cc1ccc(-c2ccccc2-c2nnn[nH]2)cc1` [Compound 3, 2-n-butyl-5-diethylaminothiocarbonylmethyl-6-methyl-3-[[2'-(1H-tetrazol-5-yl)biphenyl-4-yl]methyl]-pyrimidine-4(3H)-one], the ED50 in data set [1] was under 3 mg/kg.

As for `CCCCc1nc(C)c(CC(=S)N2CCCCCCC2)c(=O)n1Cc1ccc(-c2ccccc2-c2nn[nH]n2)cc1` [Compound 4, 2-n-butyl-5-heptamethyleniminothiocarbonyl-methyl-6-methyl-3-[[2'-(1H-tetrazol-5-yl)biphenyl-4-yl]methyl]-pyrimidine-4(3H)-one], the ED50 in data set [1] turned out to be 3.1 mg/kg.

`CCCCc1nc(C)c(CC(=S)N2CCSCC2)c(=O)n1Cc1ccc(-c2ccccc2-c2nn[nH]n2)cc1` [Compound 5, 2-n-butyl-5-thiomorpholynothiocarbonylmethyl-6-methyl-3-[[2'-(1H-tetrazol-5-yl)-biphenyl-4-yl]methyl]-pyrimidine-4(3H)-one]: in data set [1], the ED50 was under 3 mg/kg.

As for `CCCCc1nc(C)c(CC(=S)N2CCOCC2)c(=O)n1Cc1ccc(-c2ccccc2-c2nn[nH]n2)cc1` [Compound 6], in data set [1], the ED50 was under 3 mg/kg.

As for `CCCCc1nc(C)c(CC(=S)N2CCCCC2)c(=O)n1Cc1ccc(-c2ccccc2-c2nnn[nH]2)cc1` [Compound 7, 2-n-butyl-5-piperidinothiocarbonylmethyl-6-methyl-3-[[2 '-(1H-tetrazol-5-yl)-biphenyl-4-yl]methyl]-pyrimidine-4(3H)-one], the ED50 in data set [1] was under 3 mg/kg.

Regarding `CCCCc1nc(C)c(CC(=S)N2CCC2)c(=O)n1Cc1ccc(-c2ccccc2-c2nn[nH]n2)cc1` [Compound 9, 2-n-butyl-5-azetidinothiocarbonylmethyl-6-methyl-3-[[2'-(1H-tetrazol-5-yl)-biphenyl-4-yl]methyl]-pyrimidine-4 (3H)-one], in data set [1], the ED50 worked out at 1.19 mg/kg.

The term LD50 denotes the dose expected to kill half of the subjects tested. A lower LD50 goes with greater toxicity.
